The text below walks through data of ChEMBL document CHEMBL1201862, “PubChem BioAssay data set” (2004).

Among the test systems are SF-539; OVCAR-8; LOX IMVI; SF-268; IGROV-1; CAKI-1; DU-145; NCI-H460; SK-OV-3; A549; KM12; Hs-578T; NCI/ADR-RES; COLO 205; MDA-N; UACC-257; U-251; HOP-92; MCF7; NCI-H226.
Assay in all cases: NCI-60 cell line screen, 48 h

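Compound exposure: 48 hours, 5 concentrations, 96-well plates. At the GI50, growth is halved.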 Activity calls are given as the source filed them. No stated cut-off is given here; in the data, active = GI50 up to about 1.1 µM and inactive = higher.

With `O=C(O)C(Cc1ccccc1)NCc1c(O)ccc2c(-c3ccccc3)cc(=O)oc12` (stereo not given), the GI50 with SF-539, in the test with OVCAR-8, in the test with LOX IMVI, in the test on SF-268, in the test with IGROV-1 and in the test on CAKI-1 was > 100 µM (inactive) throughout. In addition, the GI50 in the test on DU-145, in the test with NCI-H460, with SK-OV-3, in the test on A549, in the test on KM12 and in the test with Hs-578T was > 100 µM (inactive) throughout. In addition, the GI50 with NCI/ADR-RES, with COLO 205, in the test on MDA-N, with UACC-257, in the test on U-251 and in the test on HOP-92 was > 100 µM (inactive) each time. The GI50 with MCF7 and in the test on NCI-H226 was > 100 µM (inactive) throughout.

Consider `SC1CCCN(Cc2ccccc2)C1` (stereo not given), for which the GI50 in the test on SF-539 is > 100 µM (inactive); in the test on OVCAR-8, 46.1 µM (inactive); with LOX IMVI, 16.5 µM (inactive); in the test with SF-268, 65.2 µM (inactive); in the test with IGROV-1, 59.8 µM (inactive); in the test on CAKI-1, 74.1 µM (inactive). For the same compound, the GI50 in the test with DU-145 is > 100 µM (inactive); in the test with NCI-H460, 23.9 µM (inactive); in the test with SK-OV-3, > 100 µM (inactive); in the test with A549, 53.7 µM (inactive); in the test with KM12, 34.1 µM (inactive); in the test with Hs-578T, 78.5 µM (inactive). In addition, the GI50 was > 100 µM (inactive) in the test with NCI/ADR-RES; 17.9 µM (inactive) in the test with COLO 205; 59 µM (inactive) in the test on MDA-N; 32.4 µM (inactive) with UACC-257; 33.4 µM (inactive) in the test on U-251; 60 µM (inactive) in the test with HOP-92. For the same compound, the GI50 with MCF7 is 20.8 µM (inactive); with NCI-H226, > 100 µM (inactive).

Take `S=C(N/N=C(/c1ccccc1)c1ccccn1)N(Cc1ccccn1)Cc1ccccn1`: the GI50 with SF-539 is 0.119 µM (active); with OVCAR-8 it was < 0.01 µM (active); in the test on LOX IMVI, 0.0908 µM (active); in the test on SF-268, 0.196 µM (active); with IGROV-1 it was < 0.01 µM (active); in the test on CAKI-1, 0.0822 µM (active). The GI50 is 0.564 µM (active) in the test on DU-145; 0.116 µM (active) with NCI-H460; 0.472 µM (active) with SK-OV-3; 0.435 µM (active) with A549; 0.432 µM (active) with KM12; 1.41 µM (inactive) in the test with Hs-578T. In addition, the GI50 is 0.0838 µM (active) with NCI/ADR-RES; < 0.0157 µM (active) in the test on COLO 205; 1.31 µM (inactive) with MDA-N; 0.0425 µM (active) in the test with UACC-257; < 0.016 µM (active) in the test with U-251; 0.174 µM (active) with HOP-92. Further, the GI50 was < 0.01 µM (active) in the test with MCF7 and < 0.0488 µM (active) in the test on NCI-H226.

For `COc1ccc(S(=O)(=O)Nc2ccc(-c3csc(N4C(=O)/C(=C/c5cccs5)N=C4c4ccccc4)n3)cc2)cc1Cl`, the GI50 was 54.2 µM (inactive) in the test on SF-539; 34 µM (inactive) in the test with OVCAR-8; 37 µM (inactive) in the test with LOX IMVI; 30.5 µM (inactive) in the test on SF-268; 30.5 µM (inactive) in the test on IGROV-1; > 100 µM (inactive) in the test with CAKI-1. The GI50 with DU-145 is 42.2 µM (inactive); in the test on NCI-H460 it was 41.1 µM (inactive); in the test on SK-OV-3, > 100 µM (inactive); in the test on A549, 38.9 µM (inactive); in the test on KM12 it was 49.1 µM (inactive); in the test with Hs-578T it was 35.2 µM (inactive). For the same compound, the GI50 was 39.4 µM (inactive) with NCI/ADR-RES; 40.6 µM (inactive) in the test on COLO 205; 34.1 µM (inactive) in the test on MDA-N; 46.3 µM (inactive) in the test with UACC-257; 34.9 µM (inactive) in the test on U-251; 22.5 µM (inactive) in the test on HOP-92. Also, the GI50 is 46.9 µM (inactive) in the test on MCF7 and 65.5 µM (inactive) with NCI-H226.

Regarding `CC(C)(C)C1=CC(=C2C=Cc3ccccc3O2)C=C(C(C)(C)C)C1=O`, the GI50 was 7.05 µM (inactive) in the test with SF-539; 6.37 µM (inactive) in the test on OVCAR-8; 3.06 µM (inactive) in the test with LOX IMVI; 5.55 µM (inactive) with SF-268; 6.53 µM (inactive) in the test with IGROV-1; 3.07 µM (inactive) with CAKI-1. Further, the GI50 is 4.71 µM (inactive) in the test with DU-145; 1.6 µM (inactive) in the test on NCI-H460; 13.6 µM (inactive) with SK-OV-3; 4.16 µM (inactive) in the test with A549; 2.47 µM (inactive) in the test on KM12; 7 µM (inactive) in the test with Hs-578T. For the same compound, the GI50 with NCI/ADR-RES was 3.81 µM (inactive); in the test with COLO 205 it was 2.18 µM (inactive); with MDA-N, 2.31 µM (inactive); with UACC-257, 3.61 µM (inactive); in the test with U-251, 2.46 µM (inactive); with HOP-92, 13.9 µM (inactive). Besides, the GI50 in the test on MCF7 was 1.86 µM (inactive); in the test on NCI-H226, 8.79 µM (inactive).

As to `COc1ccc(CNC2=N/C(=C\c3ccccc3Cl)C(=O)N2C)cc1`, the GI50 was 24.6 µM (inactive) in the test with SF-539; 27.1 µM (inactive) in the test with OVCAR-8; 20.1 µM (inactive) in the test with LOX IMVI; 45 µM (inactive) in the test on SF-268; 24.9 µM (inactive) in the test on IGROV-1; 30.7 µM (inactive) in the test on CAKI-1. Further, the GI50 was 27.7 µM (inactive) in the test with DU-145; 30.1 µM (inactive) in the test on NCI-H460; 51.2 µM (inactive) with SK-OV-3; 31.1 µM (inactive) with A549; 20.4 µM (inactive) with KM12; 57.4 µM (inactive) in the test on Hs-578T. Also, the GI50 with NCI/ADR-RES was 28 µM (inactive); in the test with COLO 205 it was 24.9 µM (inactive); in the test with MDA-N it was 18.8 µM (inactive); with UACC-257, 33.6 µM (inactive); in the test with U-251, 17.9 µM (inactive); in the test on HOP-92, 23.1 µM (inactive). In addition, the values for the GI50 with MCF7 and with NCI-H226 were 25.5 µM (inactive) and 49.2 µM (inactive), respectively.

Take `CC[C@]12C=CCN3CC[C@@]4(c5cc(Br)c(OC)cc5N(C)[C@H]4[C@@](O)(C(=O)NN)[C@@H]1O)[C@@H]32`: the GI50 in the test with SF-539 was 30.5 µM (inactive); in the test on OVCAR-8, 46.9 µM (inactive); in the test on LOX IMVI, 65.6 µM (inactive); in the test with SF-268, 56.1 µM (inactive); in the test with IGROV-1, 87.1 µM (inactive); with CAKI-1 it was > 100 µM (inactive). For the same compound, the GI50 is > 100 µM (inactive) in the test with DU-145; > 100 µM (inactive) in the test with NCI-H460; 75.7 µM (inactive) in the test on SK-OV-3; > 100 µM (inactive) with A549; > 100 µM (inactive) in the test on KM12; 76.4 µM (inactive) with Hs-578T. The GI50 was > 100 µM (inactive) with NCI/ADR-RES; > 100 µM (inactive) in the test on COLO 205; 48.1 µM (inactive) with MDA-N; 55 µM (inactive) in the test on UACC-257; 52 µM (inactive) in the test with U-251; > 100 µM (inactive) with HOP-92. The figures for the GI50 in the test on MCF7 and in the test with NCI-H226 were 30.3 µM (inactive) and 43 µM (inactive), respectively.

As for `C[C@]12CC[C@H]3[C@@H](CC=C4C[C@@H](O)CC[C@@]43C)[C@@H]1C[C@H](N1CCOCC1)[C@@H]2O`, the GI50 with SF-539 was 40 µM (inactive); in the test with OVCAR-8 it was > 100 µM (inactive); with LOX IMVI, > 100 µM (inactive); in the test on SF-268, > 100 µM (inactive); in the test on IGROV-1, > 100 µM (inactive); with CAKI-1, > 100 µM (inactive). Further, the GI50 with DU-145 was > 100 µM (inactive); in the test on NCI-H460, > 100 µM (inactive); in the test with SK-OV-3, > 100 µM (inactive); in the test with A549, > 100 µM (inactive); with KM12 it was > 100 µM (inactive); with Hs-578T it was 85.5 µM (inactive). Besides, the GI50 with NCI/ADR-RES was > 100 µM (inactive); in the test with COLO 205 it was > 100 µM (inactive); in the test on MDA-N, > 100 µM (inactive); in the test on UACC-257 it was > 100 µM (inactive); with U-251 it was 49.2 µM (inactive); in the test with HOP-92, > 100 µM (inactive). Also, the GI50 in the test with MCF7 and with NCI-H226 was > 100 µM (inactive) in each case.

In the case of `CCCCCCCCCCOCCOCCOCCOCCCCC(O)CCCCCCCC1=C[C@H](C)OC1=O` (stereo not given in full), the GI50 was 12.1 µM (inactive) in the test on SF-539; 13.4 µM (inactive) in the test with OVCAR-8; 4.98 µM (inactive) in the test with LOX IMVI; 10.9 µM (inactive) in the test on SF-268; 14.4 µM (inactive) in the test with IGROV-1; 14.1 µM (inactive) in the test with CAKI-1. Also, the GI50 is 14.7 µM (inactive) with DU-145; 7.89 µM (inactive) with NCI-H460; 16.5 µM (inactive) with SK-OV-3; 9.31 µM (inactive) in the test on A549; 10.6 µM (inactive) with KM12; 14.8 µM (inactive) in the test with Hs-578T. Besides, the GI50 is 7.41 µM (inactive) in the test on NCI/ADR-RES; 15.2 µM (inactive) in the test with COLO 205; 11.6 µM (inactive) in the test on MDA-N; 9.14 µM (inactive) in the test on UACC-257; 11.1 µM (inactive) with U-251; 14.2 µM (inactive) with HOP-92. Also, the GI50 in the test with MCF7 was 5.62 µM (inactive); in the test on NCI-H226, 10.9 µM (inactive).

`CC(CN1CC(=O)NC(=O)C1)N1CC(=O)NC(=O)C1` (stereo not given) [RAZOXANE]: the GI50 in the test on SF-539 is 332 µM (inactive); in the test with OVCAR-8, 460 µM (inactive); in the test on LOX IMVI, 212 µM (inactive); with SF-268 it was 299 µM (inactive); in the test with IGROV-1 it was 289 µM (inactive); in the test with CAKI-1, 109 µM (inactive). For the same compound, the GI50 is 160 µM (inactive) with DU-145; 11.1 µM (inactive) in the test with NCI-H460; 299 µM (inactive) in the test on SK-OV-3; 32.9 µM (inactive) in the test on A549; 398 µM (inactive) in the test on KM12; 72.3 µM (inactive) in the test on Hs-578T. Besides, the GI50 is 243 µM (inactive) in the test on NCI/ADR-RES; 22.5 µM (inactive) in the test with COLO 205; 182 µM (inactive) in the test on MDA-N; 535 µM (inactive) in the test with UACC-257; 201 µM (inactive) in the test on U-251; 211 µM (inactive) with HOP-92. The GI50 in the test with MCF7 is 33.2 µM (inactive); in the test with NCI-H226 it was 68.1 µM (inactive).
